Test results reported in PubChem BioAssay (NCI).
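Method: 48-hour compound exposure of cells in 96-well plates, five concentrations, linear interpolation of endpoints. The concentration for 50% growth inhibition is given as GI50. TGI denotes the concentration required for complete inhibition of growth.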

Each compound was assayed on BT-549 breast (assay: NCI anticancer screen, dose series, 48 h).
`COc1cc(-c2nn(-c3cccc(NC(=O)c4ccccc4)c3)cc2-c2ccncc2)ccc1Cl` was tested, and the GI50 was 0.98 µM and the TGI was > 100 µM. With `Cc1cc(Nc2ccc(C)c(Cl)c2)n2nc(C(F)(F)F)nc2n1` the GI50 was 22.9 µM and the TGI was 57.4 µM. With `COc1ccc(Cn2c(Br)c3c(c2Br)-c2nc(N)sc2CC3)cc1` the GI50 was 9.16 µM and the TGI was 30.4 µM. With `C#Cc1cccc(Nc2nc3cc([N+](=O)[O-])ccc3nc2Nc2ccc(O)cc2)c1` the GI50 was 1.71 µM and the TGI was 3.7 µM. For `Cc1nnc2ccnn2c1C`, the GI50 was > 100 µM and the TGI was > 100 µM. In the case of `COc1cc2c(cc1OC)-c1cc(OC)c(OC)cc1C(CN(C)C)C2` (stereo not given), the GI50 is reported as > 10 µM and the TGI is reported as > 10 µM. For `CC(C)(C)[Si](C)(C)OC1[C@@H](O[Si](C)(C)C(C)(C)C)[C@@H](CNC(=O)NC(=O)C(F)(F)F)O[C@H]1n1cnc2c(NC(=O)Nc3ccccc3)ncnc21` (stereo not given in full), the GI50 was 6.81 µM and the TGI was 13.4 µM. With `Cc1ccc(-c2nc(N3CCNCC3)c3oc(-c4ccc(C)cc4)nc3n2)cc1` the GI50 was 5.39 µM and the TGI was 11.2 µM. With `Cc1ccc(NC2=C3CCCCC3OC2=O)cc1` (stereo not given) the GI50 was > 100 µM and the TGI was > 100 µM. Compound `CCC(C)SC1SCC2C(=O)N(C)C3(CC3C)C(=O)OCC(NC(=O)c3nc4ccccc4cc3O)C(=O)NC(C)C(=O)N(C)C1C(=O)N(C)C1(CC1C)C(=O)OCC(NC(=O)c1nc3ccccc3cc1O)C(=O)NC(C)C(=O)N2C` (stereo not given) has a TGI of 0.000693 µM. Compound `COc1ccc(CN2C(=O)C(Cl)=C(Nc3cccc(C(F)(F)F)c3)C2=O)cc1` has a GI50 of 1.58 µM and a TGI of 14.8 µM. `O=[N+]([O-])c1cc([N+](=O)[O-])c(C(F)(F)F)cc1NN=C(c1ccc(O)cc1)c1ccc(O)cc1` gave a GI50 of 5 µM and a TGI of 42.8 µM. Work on `NC(=S)N/N=C\c1nccc2c(C(F)(F)F)cccc12` yielded a GI50 of 0.395 µM and a TGI of 7.71 µM. With `CC(=O)N[C@@H](Cc1ccc(OP(=O)(O)O)cc1)C(=O)N[C@H]1CCC(=O)N2CCC[C@@H](C(=O)Nc3cccc4ccccc34)N2C1=O` the GI50 was > 25 µM and the TGI was > 25 µM.

What follows are compounds tested on DU-145 prostate (assay: NCI anticancer screen, dose series, 48 h).
Compound `COc1cc(-c2nn(-c3cccc(NC(=O)c4ccccc4)c3)cc2-c2ccncc2)ccc1Cl` has a GI50 of 0.626 µM and a TGI of 27.1 µM. Compound `Cc1cc(Nc2ccc(C)c(Cl)c2)n2nc(C(F)(F)F)nc2n1` has a GI50 of 17.6 µM and a TGI of 38.9 µM. Compound `COc1ccc(Cn2c(Br)c3c(c2Br)-c2nc(N)sc2CC3)cc1` has a GI50 of 6.13 µM and a TGI of 39.6 µM. Work on `C#Cc1cccc(Nc2nc3cc([N+](=O)[O-])ccc3nc2Nc2ccc(O)cc2)c1` yielded a GI50 of 1.81 µM and a TGI of 3.77 µM. Work on `CN(C)CC(O)c1ccc(/C=C/c2ccc(Cl)cc2)cc1` (stereo not given) yielded a GI50 of 1.52 µM and a TGI of 2.85 µM. `Cc1nnc2ccnn2c1C` was tested, and the GI50 was > 100 µM and the TGI was > 100 µM. `COc1cc2c(cc1OC)-c1cc(OC)c(OC)cc1C(CN(C)C)C2` (stereo not given) was tested, and the GI50 was > 10 µM and the TGI was > 10 µM. `CC(C)(C)[Si](C)(C)OC1[C@@H](O[Si](C)(C)C(C)(C)C)[C@@H](CNC(=O)NC(=O)C(F)(F)F)O[C@H]1n1cnc2c(NC(=O)Nc3ccccc3)ncnc21` (stereo not given in full) showed a GI50 of 6.52 µM and a TGI of 13.2 µM. With `Cc1ccc(-c2nc(N3CCNCC3)c3oc(-c4ccc(C)cc4)nc3n2)cc1` the GI50 was 1.98 µM and the TGI was 3.76 µM. For `Cc1ccc(NC2=C3CCCCC3OC2=O)cc1` (stereo not given), the GI50 was 88.8 µM and the TGI was > 100 µM. With `COC1=CC(=O)C(C2(OC(C)C)OC(=O)C(Cl)=C2Cl)=CC1=O` (stereo not given) the TGI was > 100 µM. For `COc1ccc(CN2C(=O)C(Cl)=C(Nc3cccc(C(F)(F)F)c3)C2=O)cc1`, the GI50 was 8.19 µM and the TGI was 21.6 µM. Work on `O=[N+]([O-])c1cc([N+](=O)[O-])c(C(F)(F)F)cc1NN=C(c1ccc(O)cc1)c1ccc(O)cc1` yielded a GI50 of 3.79 µM and a TGI of 13.8 µM. `NC(=S)N/N=C\c1nccc2c(C(F)(F)F)cccc12` was tested, and the GI50 was 0.292 µM and the TGI was > 39.3 µM. For `CC(=O)N[C@@H](Cc1ccc(OP(=O)(O)O)cc1)C(=O)N[C@H]1CCC(=O)N2CCC[C@@H](C(=O)Nc3cccc4ccccc34)N2C1=O`, the GI50 was > 25 µM and the TGI was > 25 µM.

These compounds were tested on EKVX NSCLC (assay: NCI anticancer screen, dose series, 48 h).
In the case of `C[C@@]1(O)CC[C@]2(C)C3CCCC3[C@H]12` (stereo not given in full), the TGI is reported as > 100 µM. With `CC(=O)[O-].CC(=O)[O-].O=C(N/N=C/c1cc(Cl)cc(Cl)c1O)c1ccncc1.[Cu+2]` the TGI was > 100 µM. Compound `C#Cc1cccc(Nc2nc3cc([N+](=O)[O-])ccc3nc2Nc2ccc(O)cc2)c1` has a GI50 of 1.86 µM and a TGI of 5.26 µM. With `O=C(Nc1nc(=S)[nH][nH]1)C(=O)C(C(=O)c1ccc2ccccc2c1)C1OC(=O)c2ccccc21` (stereo not given) the TGI was > 100 µM. With `CN(C)CC(O)c1ccc(/C=C/c2ccc(Cl)cc2)cc1` (stereo not given) the GI50 was 1.34 µM and the TGI was 3.19 µM. `Cc1nnc2ccnn2c1C` showed a TGI of 0.962 µM. For `CCOC(=O)C1=C(C)N(NC(=O)Nc2ccccc2)C2(N)N(NC(=O)Nc3ccccc3)C(C)=C(C(=O)OCC)C12C(=O)OCC` (stereo not given), the TGI was > 100 µM. For `O=C(O)CSc1n[nH]c(-c2ccccc2O)n1`, the TGI was > 100 µM. With `Cc1nc(-c2nc(C)c(C(=O)NNC(=O)C[n+]3ccccc3)s2)sc1C(=O)NNC(=O)C[n+]1ccccc1` the TGI was > 100 µM. `CN(C)C=Nc1nc(=O)n(C2CCC(CO)O2)cc1F` (stereo not given) was tested, and the TGI was > 100 µM. For `O=c1[nH]c(-c2ccccc2)nc2cc(Cl)ccc12`, the TGI was > 100 µM. With `Cc1ccc(S(=O)(=O)N2CCC2c2ccccc2)cc1` (stereo not given) the TGI was > 100 µM. In the case of `CCCOc1nc(N)c2cnn(C3CCCCO3)c2n1` (stereo not given), the TGI is reported as > 100 µM. With `C/C(CN1C(=O)c2ccccc2C1=O)=N\NS(=O)(=O)c1ccc(Cl)cc1` the TGI was > 100 µM. With `COc1ccc(/C=C/COC(C)=O)cc1OC` the TGI was > 100 µM. For `Cc1ccc(-c2nc(N3CCNCC3)c3oc(-c4ccc(C)cc4)nc3n2)cc1`, the GI50 was > 36.3 µM and the TGI was > 51.7 µM. In the case of `[O-][Cl+3]([O-])([O-])[O-].[O]=[Ru]=[O].c1ccc(-c2ccccn2)nc1.c1ccc(-c2ccccn2)nc1`, the GI50 is reported as > 100 µM and the TGI is reported as > 100 µM. For `CCOC(=O)C1Sc2ccccc2N=C1C` (stereo not given), the TGI was > 100 µM. `COC1=CC(=O)C(C2(OC(C)C)OC(=O)C(Cl)=C2Cl)=CC1=O` (stereo not given) was tested, and the TGI was > 100 µM. In the case of `O=C(NC1C=CCC2C(=O)N(c3ccccc3)C(=O)C12)OCc1ccccc1` (stereo not given), the TGI is reported as > 100 µM. `CCC(C)SC1SCC2C(=O)N(C)C3(CC3C)C(=O)OCC(NC(=O)c3nc4ccccc4cc3O)C(=O)NC(C)C(=O)N(C)C1C(=O)N(C)C1(CC1C)C(=O)OCC(NC(=O)c1nc3ccccc3cc1O)C(=O)NC(C)C(=O)N2C` (stereo not given) was tested, and the TGI was 0.00538 µM. Work on `Cc1[cH-]c(=O)n(-c2ccccc2)n1.[Au+].[Au].c1ccc([PH+](c2ccccc2)c2ccccc2)cc1.c1ccc([PH+](c2ccccc2)c2ccccc2)cc1` yielded a GI50 of 23 µM and a TGI of 79.7 µM. `CC1(C)CC(c2c[nH]c3ccccc23)=CC2=Nc3ccccc3C21O` (stereo not given) was tested, and the TGI was > 100 µM. Compound `CN1C(=O)C(=O)N2c3ccc(Cl)cc3C3(c4ccccc4)N=CC12O3` (stereo not given) has a TGI of 27.6 µM. Compound `COc1ccc(CN2C(=O)C(Cl)=C(Nc3cccc(C(F)(F)F)c3)C2=O)cc1` has a GI50 of 8.34 µM and a TGI of 68.7 µM. `O=[N+]([O-])c1cc([N+](=O)[O-])c(C(F)(F)F)cc1NN=C(c1ccc(O)cc1)c1ccc(O)cc1` showed a GI50 of 2.75 µM and a TGI of 14.6 µM. For `N#CCCC[Si]12OCCN(CCO1)CCO2`, the TGI was > 100 µM. `O=C(/C=C/c1c(O)ccc2ccccc12)c1ccc([N+](=O)[O-])cc1` was tested, and the TGI was > 100 µM.

Each compound was assayed on HCT-15 colon (assay: NCI anticancer screen, dose series, 48 h).
In the case of `C[C@@]1(O)CC[C@]2(C)C3CCCC3[C@H]12` (stereo not given in full), the TGI is reported as > 100 µM. For `COc1cc(-c2nn(-c3cccc(NC(=O)c4ccccc4)c3)cc2-c2ccncc2)ccc1Cl`, the GI50 was 0.579 µM and the TGI was > 100 µM. For `Cc1cc(Nc2ccc(C)c(Cl)c2)n2nc(C(F)(F)F)nc2n1`, the GI50 was 23.6 µM and the TGI was > 100 µM. Work on `COc1ccc(Cn2c(Br)c3c(c2Br)-c2nc(N)sc2CC3)cc1` yielded a GI50 of 2.67 µM and a TGI of 20.2 µM. In the case of `CC(=O)[O-].CC(=O)[O-].O=C(N/N=C/c1cc(Cl)cc(Cl)c1O)c1ccncc1.[Cu+2]`, the TGI is reported as > 100 µM. In the case of `O=C(Nc1nc(=S)[nH][nH]1)C(=O)C(C(=O)c1ccc2ccccc2c1)C1OC(=O)c2ccccc21` (stereo not given), the TGI is reported as 78.5 µM.
